According to patent publication US20250205259A1, “CLASS OF 7-((FIVE-MEMBERED HETEROCYCLIC)METHYL)-8-CARBOXYLIC ACID-BENZO CYCLIC BORATE DERIVATIVES AND USES THEREOF” (priority 2022, published 2025):
Read-outs that look alike come from different tables or passages of the source.

Experiments:
Type in all cases: biochemical
[1] = molecular target: OXA-48 (Klebsiella pneumoniae, UniProt Q6XEC0); experiment: Inhibitory activity on SBL, fluorescent substrate FC-5; conditions: for IC50: read-out: Inhibitory activity on SBL OXA-48 (IC50 class); for inhibitory activity on OXA-48 compared to avibactam: comparison in words
[2] = molecular target: NDM-5 (Klebsiella pneumoniae, UniProt C7C422, M154L/V88L); experiment: Inhibitory activity on MBL, fluorescent substrate FC-5
[3] = molecular target: NDM-1 (Klebsiella pneumoniae, UniProt C7C422); experiment: as above
[4] = molecular target: TEM-1 (Escherichia coli, UniProt P62593); experiment: Inhibitory activity on SBL, fluorescent substrate FC-5; conditions: for IC50: read-out: Inhibitory activity on SBL TEM-1 (IC50 class); for inhibitory activity on TEM-1 compared to avibactam: comparison in words
[5] = molecular target: T1, SHV-12 (UniProt P0AD64, L31Q/G234S/E235K, species not given); experiment: as above; conditions: read-out: Inhibitory activity on SBL SHV-12 (IC50 class)
T1 sequence (P0AD64 1-286 L31Q/G234S/E235K): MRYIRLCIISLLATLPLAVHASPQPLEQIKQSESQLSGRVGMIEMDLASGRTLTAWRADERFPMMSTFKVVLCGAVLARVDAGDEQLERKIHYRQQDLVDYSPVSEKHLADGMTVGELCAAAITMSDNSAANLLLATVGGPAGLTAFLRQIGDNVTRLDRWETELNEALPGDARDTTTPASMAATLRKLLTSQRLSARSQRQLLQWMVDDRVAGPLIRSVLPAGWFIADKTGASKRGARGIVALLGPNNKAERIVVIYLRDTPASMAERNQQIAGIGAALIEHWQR

[6] = molecular target: VIM-1 (Pseudomonas aeruginosa, UniProt A0A0F7KYQ8); experiment: Inhibitory activity on MBL, fluorescent substrate FC-5
[7] = molecular target: CTX-M-14 (Escherichia coli, UniProt Q9L5C7); experiment: Inhibitory activity on SBL, fluorescent substrate FC-5; conditions: for IC50: read-out: Inhibitory activity on SBL CTX-M-14 (IC50 class); for inhibitory activity on CTX-M-14 compared to avibactam: comparison in words
[8] = molecular target: IMP-1 (Serratia marcescens, UniProt P52699); experiment: Inhibitory activity on MBL, fluorescent substrate FC-5; conditions: read-out: Inhibitory activity on MBL IMP-1 (IC50 class)
[9] = molecular target: VIM-2 (Escherichia coli, UniProt Q5U7L7); experiment: as above; conditions: read-out: Inhibitory activity on MBL VIM-2 (IC50 class)
[10] = molecular target: KPC-2 (Klebsiella pneumoniae, UniProt Q9F663); experiment: Inhibitory activity on SBL, fluorescent substrate FC-5; conditions: for IC50: read-out: Inhibitory activity on SBL KPC-2 (IC50 class); for inhibitory activity on KPC-2 compared to avibactam: comparison in words
[11] = read-out: Inhibitory activity on MBL NDM-5 (IC50 class)
[12] = read-out: inhibitory activity at a nanomolar-level on NDM-5
[13] = read-out: Inhibitory activity on MBL NDM-1 (IC50 class)
[14] = read-out: inhibitory activity at a nanomolar-level on NDM-1
[15] = VIM-1 and/or VIM-2, read-out: inhibitory activity at a nanomolar-level on VIM-1 and/or VIM-2
[16] = read-out: Inhibitory activity on MBL VIM-1 (IC50 class)

Sequence of KPC-2 (Q9F663 25-293 limits assumed): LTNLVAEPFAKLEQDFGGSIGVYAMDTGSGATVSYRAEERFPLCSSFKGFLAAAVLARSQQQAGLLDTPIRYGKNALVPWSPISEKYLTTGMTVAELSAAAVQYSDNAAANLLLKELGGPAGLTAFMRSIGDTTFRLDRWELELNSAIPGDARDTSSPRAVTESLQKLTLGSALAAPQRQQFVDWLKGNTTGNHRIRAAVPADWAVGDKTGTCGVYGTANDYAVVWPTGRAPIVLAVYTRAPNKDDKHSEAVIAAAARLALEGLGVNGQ
Sequence of NDM-1 (C7C422 29-270 limits assumed): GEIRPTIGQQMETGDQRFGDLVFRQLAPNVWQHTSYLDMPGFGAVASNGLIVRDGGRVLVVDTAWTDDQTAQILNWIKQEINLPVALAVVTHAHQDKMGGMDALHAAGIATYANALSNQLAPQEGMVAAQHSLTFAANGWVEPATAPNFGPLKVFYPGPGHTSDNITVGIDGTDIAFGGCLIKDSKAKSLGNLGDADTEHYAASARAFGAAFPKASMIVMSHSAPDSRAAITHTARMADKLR
Sequence of TEM-1 (P62593 24-286 limits assumed): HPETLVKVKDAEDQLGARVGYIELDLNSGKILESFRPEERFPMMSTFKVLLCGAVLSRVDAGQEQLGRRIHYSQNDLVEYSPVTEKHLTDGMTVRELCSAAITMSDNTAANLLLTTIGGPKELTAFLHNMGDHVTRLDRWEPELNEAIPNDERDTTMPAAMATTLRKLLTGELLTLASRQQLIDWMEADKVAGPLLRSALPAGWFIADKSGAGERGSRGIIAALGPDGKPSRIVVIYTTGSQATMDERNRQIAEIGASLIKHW
Sequence of NDM-5 (C7C422 29-270 V88L/M154L): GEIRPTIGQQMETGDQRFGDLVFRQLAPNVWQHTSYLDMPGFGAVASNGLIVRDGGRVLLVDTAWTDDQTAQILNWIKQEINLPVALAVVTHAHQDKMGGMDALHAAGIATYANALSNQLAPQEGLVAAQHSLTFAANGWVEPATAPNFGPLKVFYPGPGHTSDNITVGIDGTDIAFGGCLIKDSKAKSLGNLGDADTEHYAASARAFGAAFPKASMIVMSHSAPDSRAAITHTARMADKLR
Sequence of CTX-M-14 (Q9L5C7 entry or part of it): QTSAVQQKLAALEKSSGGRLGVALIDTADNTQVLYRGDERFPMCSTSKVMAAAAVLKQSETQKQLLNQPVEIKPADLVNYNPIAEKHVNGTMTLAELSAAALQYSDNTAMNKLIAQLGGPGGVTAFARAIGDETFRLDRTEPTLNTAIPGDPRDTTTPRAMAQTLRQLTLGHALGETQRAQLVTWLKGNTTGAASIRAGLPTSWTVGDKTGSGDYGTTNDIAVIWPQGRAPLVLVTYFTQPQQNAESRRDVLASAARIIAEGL
Sequence of OXA-48 (Q6XEC0 23-265 limits assumed): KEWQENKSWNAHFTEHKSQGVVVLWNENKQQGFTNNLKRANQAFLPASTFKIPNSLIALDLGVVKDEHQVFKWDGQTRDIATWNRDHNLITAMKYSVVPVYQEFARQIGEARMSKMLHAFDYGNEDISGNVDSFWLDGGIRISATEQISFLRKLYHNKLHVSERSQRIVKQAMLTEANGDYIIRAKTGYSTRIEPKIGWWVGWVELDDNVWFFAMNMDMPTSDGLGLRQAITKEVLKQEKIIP
Sequence of IMP-1 (P52699 19-246 limits assumed): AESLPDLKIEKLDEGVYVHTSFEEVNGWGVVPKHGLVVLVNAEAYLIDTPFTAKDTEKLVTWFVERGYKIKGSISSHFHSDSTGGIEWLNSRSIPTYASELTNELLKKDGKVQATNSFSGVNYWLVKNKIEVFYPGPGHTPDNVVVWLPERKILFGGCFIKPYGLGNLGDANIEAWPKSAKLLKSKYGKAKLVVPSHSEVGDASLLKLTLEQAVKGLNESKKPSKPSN

Row | SMILES | IC50 [1] | IC50 [2, 11] | IC50 [2, 12] | IC50 [3, 13] | IC50 [3, 14] | IC50 [4] | IC50 [5] | IC50 [6, 15] | IC50 [6, 16] | IC50 [7] | IC50 [8] | IC50 [9] | IC50 [10] | inhibitory activity on OXA-48 compared to avibactam [1] | inhibitory activity on TEM-1 compared to avibactam [4] | inhibitory activity on CTX-M-14 compared to avibactam [7] | inhibitory activity on KPC-2 compared to avibactam [10]
1 | O=C(O)c1c(Cn2cc(C(F)(F)F)cn2)ccc2c1OB(O)CC2 [Compound 16] | < 10 nM | 10 to 1000 nM | < 1000 nM | 10 to 1000 nM | < 1000 nM | 10 to 1000 nM | 10 to 1000 nM | < 1000 nM | 1000 to 100000 nM | < 10 nM | 1000 to 100000 nM | 10 to 1000 nM | < 10 nM | – | – | – | –
2 | N#Cc1cnn(Cc2ccc3c(c2C(=O)O)OB(O)CC3)c1 [Compound 17] | < 10 nM | 10 to 1000 nM | < 1000 nM | 10 to 1000 nM | < 1000 nM | < 10 nM | 10 to 1000 nM | < 1000 nM | 1000 to 100000 nM | 10 to 1000 nM | 1000 to 100000 nM | 10 to 1000 nM | < 10 nM | better or comparable | better or comparable | better or comparable | better or comparable
3 | N#Cc1ccn(Cc2ccc3c(c2C(=O)O)OB(O)CC3)n1 [Compound 18] | < 10 nM | 10 to 1000 nM | < 1000 nM | 10 to 1000 nM | < 1000 nM | < 10 nM | 10 to 1000 nM | < 1000 nM | 1000 to 100000 nM | 10 to 1000 nM | 1000 to 100000 nM | 10 to 1000 nM | < 10 nM | better or comparable | better or comparable | better or comparable | better or comparable
4 | NC(=O)c1cnn(Cc2ccc3c(c2C(=O)O)OB(O)CC3)c1 [Compound 19] | < 10 nM | 10 to 1000 nM | < 1000 nM | 10 to 1000 nM | < 1000 nM | < 10 nM | 10 to 1000 nM | < 1000 nM | 10 to 1000 nM | 10 to 1000 nM | 1000 to 100000 nM | 10 to 1000 nM | < 10 nM | better or comparable | better or comparable | better or comparable | better or comparable
5 | NC(=O)c1ccn(Cc2ccc3c(c2C(=O)O)OB(O)CC3)n1 [Compound 20] | < 10 nM | 10 to 1000 nM | < 1000 nM | 10 to 1000 nM | < 1000 nM | < 10 nM | 10 to 1000 nM | < 1000 nM | 10 to 1000 nM | 10 to 1000 nM | 1000 to 100000 nM | 10 to 1000 nM | < 10 nM | – | – | – | –
6 | O=C(O)c1c(Cn2ccnc2)ccc2c1OB(O)CC2 [Compound 23] | < 10 nM | 10 to 1000 nM | < 1000 nM | 10 to 1000 nM | < 1000 nM | 10 to 1000 nM | 10 to 1000 nM | < 1000 nM | 1000 to 100000 nM | 10 to 1000 nM | 1000 to 100000 nM | 10 to 1000 nM | < 10 nM | – | – | – | –
7 | Cc1nccn1Cc1ccc2c(c1C(=O)O)OB(O)CC2 [Compound 24] | < 10 nM | 1000 to 100000 nM | – | 1000 to 100000 nM | – | 10 to 1000 nM | 10 to 1000 nM | < 1000 nM | 1000 to 100000 nM | 10 to 1000 nM | 1000 to 100000 nM | 10 to 1000 nM | < 10 nM | – | – | – | –
8 | N#Cc1cccn1Cc1ccc2c(c1C(=O)O)OB(O)CC2 [Compound 25] | 10 to 1000 nM | 1000 to 100000 nM | – | 1000 to 100000 nM | – | 10 to 1000 nM | 10 to 1000 nM | – | 1000 to 100000 nM | 10 to 1000 nM | 1000 to 100000 nM | 1000 to 100000 nM | < 10 nM | – | – | – | –
9 | O=C(O)c1c(CN2CC=CC2)ccc2c1OB(O)CC2 [Compound 26] | 10 to 1000 nM | 1000 to 100000 nM | – | 1000 to 100000 nM | – | 10 to 1000 nM | 10 to 1000 nM | – | 1000 to 100000 nM | 10 to 1000 nM | 1000 to 100000 nM | 1000 to 100000 nM | < 10 nM | – | – | – | –
10 | O=C(O)c1c(Cn2cc([N+](=O)[O-])cn2)ccc2c1OB(O)CC2 [Compound 31] | < 10 nM | 10 to 1000 nM | < 1000 nM | 10 to 1000 nM | < 1000 nM | 10 to 1000 nM | 10 to 1000 nM | – | 1000 to 100000 nM | 10 to 1000 nM | 1000 to 100000 nM | 10 to 1000 nM | < 10 nM | – | – | – | –
